This test relates to MV-4-11 cells. As to the kind of experiment: Gene expression microarray analysis (Affymetrix PrimeView) and GSEA. On the set-up: RFU PODN (11730768_x_at) / Fold change /veh PODN (11730768_x_at) / RFU LINC00158 (11744669_a_at) / Fold change /veh LINC00158 (11744669_a_at) / RFU DUSP10 (11751237_a_at) / Fold change /veh DUSP10 (11751237_a_at) / RFU ID3 (11757404_x_at) / Fold change /veh ID3 (11757404_x_at) / RFU PLEKHG5 (11737974_s_at) / Fold change /veh PLEKHG5 (11737974_s_at) / RFU LRRC4B (11730491_at) / Fold change /veh LRRC4B (11730491_at) / RFU GIMAP4 (11747438_a_at) / Fold change /veh GIMAP4 (11747438_a_at) / RFU KRT8 (11758183_x_at) / Fold change /veh KRT8 (11758183_x_at) / RFU CNN1 (11734310_a_at) / Fold change /veh CNN1 (11734310_a_at) / RFU VPS37D (11726825_at) / Fold change /veh VPS37D (11726825_at) / RFU C10orf10 (11716522_x_at) / Fold change /veh C10orf10 (11716522_x_at) / RFU KIR2DL2 /// KIR2DL4 /// KIR2DL5A /// KIR2DL5B /// KIR2DS1 /// KIR2DS2 /// KIR2DS3 /// KIR2DS4 /// KIR3DL3 /// KIR3DL3 /// KIR3DS1 (11738374_at) / Fold change /veh KIR2DL2 /// KIR2DL4 /// KIR2DL5A /// KIR2DL5B /// KIR2DS1 /// KIR2DS2 /// KIR2DS3 /// KIR2DS4 /// KIR3DL3 /// KIR3DL3 /// KIR3DS1 (11738374_at) / RFU C1QL1 (11718748_at) / Fold change /veh C1QL1 (11718748_at) / RFU TMPRSS4 (11747572_a_at) / Fold change /veh TMPRSS4 (11747572_a_at) / RFU HAMP (11756126_x_at) / Fold change /veh HAMP (11756126_x_at) / RFU RNFT2 (11725882_a_at) / Fold change /veh RNFT2 (11725882_a_at) / RFU NR4A2 (11747474_a_at) / Fold change /veh NR4A2 (11747474_a_at) / RFU ABCC12 (11746883_a_at) / Fold change /veh ABCC12 (11746883_a_at) / RFU TMEM136 (11760407_x_at) / Fold change /veh TMEM136 (11760407_x_at) / RFU CLDN22 /// WWC2 (11732394_at) / Fold change /veh CLDN22 /// WWC2 (11732394_at) / RFU HLA-DPB1 (11760878_x_at) / Fold change /veh HLA-DPB1 (11760878_x_at) / RFU SPINT1 (11716480_a_at) / Fold change /veh SPINT1 (11716480_a_at) / RFU GAP43 (11754022_s_at) / Fold change /veh GAP43 (11754022_s_at) / RFU A4GNT (11735810_at) / Fold change /veh A4GNT (11735810_at) / RFU PRB3 (11715151_x_at) / Fold change /veh PRB3 (11715151_x_at) / RFU TUBB4B (11761932_at) / Fold change /veh TUBB4B (11761932_at) / RFU CAPN14 (11732068_a_at) / Fold change /veh CAPN14 (11732068_a_at) / RFU TMCC2 (11721928_a_at) / Fold change /veh TMCC2 (11721928_a_at) / RFU IRGQ (11745062_a_at) / Fold change /veh IRGQ (11745062_a_at) / RFU FAM174B (11720279_a_at) / Fold change /veh FAM174B (11720279_a_at) / RFU TMPRSS4 (11748680_a_at) / Fold change /veh TMPRSS4 (11748680_a_at) / RFU FAM212B (11763350_a_at) / Fold change /veh FAM212B (11763350_a_at) / RFU PLEKHG5 (11743358_a_at) / Fold change /veh PLEKHG5 (11743358_a_at) / RFU ZSCAN30 (11745921_a_at) / Fold change /veh ZSCAN30 (11745921_a_at) / RFU CMKLR1 (11741424_a_at) / Fold change /veh CMKLR1 (11741424_a_at) / RFU LOC101060620 /// MAPK8IP1 (11723275_at) / Fold change /veh LOC101060620 /// MAPK8IP1 (11723275_at) / RFU SPTSSB (11747773_x_at) / Fold change /veh SPTSSB (11747773_x_at) / RFU PRSS12 (11739890_at) / Fold change /veh PRSS12 (11739890_at) / RFU BIN1 (11741810_x_at) / Fold change /veh BIN1 (11741810_x_at) / RFU WNT11 (11732464_a_at) / Fold change /veh WNT11 (11732464_a_at) / RFU C10orf10 (11716521_a_at) / Fold change /veh C10orf10 (11716521_a_at) / RFU C5orf56 (11738089_at) / Fold change /veh C5orf56 (11738089_at) / RFU CYB561 (11721691_x_at) / Fold change /veh CYB561 (11721691_x_at) / RFU ANKRD19P (11752326_a_at) / Fold change /veh ANKRD19P (11752326_a_at) / RFU OR2T12 /// OR2T33 /// OR2T8 (11738714_s_at) / Fold change /veh OR2T12 /// OR2T33 /// OR2T8 (11738714_s_at) / RFU VCAN (11748164_a_at) / Fold change /veh VCAN (11748164_a_at) / RFU JSRP1 (11732532_at) / Fold change /veh JSRP1 (11732532_at) / RFU KRTAP10-11 (11738290_x_at) / Fold change /veh KRTAP10-11 (11738290_x_at) / RFU MYO3A (11730013_a_at) / Fold change /veh MYO3A (11730013_a_at) / RFU EBF3 (11725865_a_at) / Fold change /veh EBF3 (11725865_a_at) / RFU CAMK2N1 (11719241_x_at) / Fold change /veh CAMK2N1 (11719241_x_at) / RFU C5orf56 (11738088_a_at) / Fold change /veh C5orf56 (11738088_a_at) / RFU OLFML3 (11715873_a_at) / Fold change /veh OLFML3 (11715873_a_at) / RFU LOC100653217 /// NTM (11731650_a_at) / Fold change /veh LOC100653217 /// NTM (11731650_a_at) / RFU MAPK11 (11762145_a_at) / Fold change /veh MAPK11 (11762145_a_at) / RFU FIZ1 (11724087_x_at) / Fold change /veh FIZ1 (11724087_x_at) / RFU OASL (11726364_x_at) / Fold change /veh OASL (11726364_x_at) / RFU SOX15 (11748057_x_at) / Fold change /veh SOX15 (11748057_x_at) / RFU CD79A (11719716_a_at) / Fold change /veh CD79A (11719716_a_at) / RFU HIST1H1D (11736915_at) / Fold change /veh HIST1H1D (11736915_at) / RFU CASKIN2 (11723855_a_at) / Fold change /veh CASKIN2 (11723855_a_at) / RFU LOC730098 (11760151_x_at) / Fold change /veh LOC730098 (11760151_x_at) / RFU OR4N2 (11742367_at) / Fold change /veh OR4N2 (11742367_at) / RFU PRRT2 (11749266_a_at) / Fold change /veh PRRT2 (11749266_a_at) / RFU SNX32 (11753110_a_at) / Fold change /veh SNX32 (11753110_a_at) / RFU CDHR5 (11726645_a_at) / Fold change /veh CDHR5 (11726645_a_at) / RFU RCAN1 (11760418_a_at) / Fold change /veh RCAN1 (11760418_a_at) / RFU FAM167A (11723789_a_at) / Fold change /veh FAM167A (11723789_a_at) / RFU FAM26E (11764081_at) / Fold change /veh FAM26E (11764081_at) / RFU ISYNA1 (11749810_s_at) / Fold change /veh ISYNA1 (11749810_s_at) / RFU ACY1 (11761880_at) / Fold change /veh ACY1 (11761880_at) / RFU 11764098_at / Fold change /veh 11764098_at / RFU SAMD14 (11745864_x_at) / Fold change /veh SAMD14 (11745864_x_at) / RFU NPB (11741838_a_at) / Fold change /veh NPB (11741838_a_at) / RFU TMPRSS6 (11731388_a_at) / Fold change /veh TMPRSS6 (11731388_a_at) / RFU KRTAP10-2 (11738614_at) / Fold change /veh KRTAP10-2 (11738614_at) / RFU ARHGAP8 /// PRR5-ARHGAP8 (11727945_x_at) / Fold change /veh ARHGAP8 /// PRR5-ARHGAP8 (11727945_x_at) / RFU KRTAP5-7 /// NADSYN1 (11734609_at) / Fold change /veh KRTAP5-7 /// NADSYN1 (11734609_at) / RFU RASL12 (11751679_a_at) / Fold change /veh RASL12 (11751679_a_at) / RFU CDKN2B (11736163_a_at) / Fold change /veh CDKN2B (11736163_a_at) / RFU PRF1 (11729649_at) / Fold change /veh PRF1 (11729649_at) / RFU, ZNF638 /// ZNF638-IT1 / Fold change vs veh, ZNF638 /// ZNF638-IT1 / RFU, PANK3 / Fold change vs veh, PANK3 / RFU, SH3YL1 / Fold change vs veh, SH3YL1 / RFU, ZEB2 / Fold change vs veh, ZEB2 / RFU, NRIP1 / Fold change vs veh, NRIP1 / RFU, PTTG1IP / Fold change vs veh, PTTG1IP / RFU, CAPN2 / Fold change vs veh, CAPN2 / RFU, MED14 / Fold change vs veh, MED14 / RFU, SNORA58 / Fold change vs veh, SNORA58 / RFU, C1orf63 / Fold change vs veh, C1orf63 / RFU, LRRFIP1 / Fold change vs veh, LRRFIP1 / RFU, NDUFAF7 / Fold change vs veh, NDUFAF7 / RFU, SLC12A2 / Fold change vs veh, SLC12A2 / RFU, IBTK / Fold change vs veh, IBTK / RFU, ESF1 / Fold change vs veh, ESF1 / Fold change vs veh, TMEM50B / RFU, TAOK1 / Fold change vs veh, TAOK1 / RFU, ACBD3 / Fold change vs veh, ACBD3 / RFU, TMA16 / Fold change vs veh, TMA16 / RFU, RWDD3 / Fold change vs veh, RWDD3 / RFU, BCAT1 / Fold change vs veh, BCAT1 / RFU, EDEM3 / Fold change vs veh, EDEM3 / RFU, TMEM33 / Fold change vs veh, TMEM33 / RFU, WDR75 / Fold change vs veh, WDR75 / RFU, AHCTF1 / Fold change vs veh, AHCTF1 / RFU, TFRC / Fold change vs veh, TFRC / RFU, ZDHHC17 / Fold change vs veh, ZDHHC17 / RFU, NOM1 / Fold change vs veh, NOM1 / RFU, ARL8B / Fold change vs veh, ARL8B / RFU, ZBTB11 / Fold change vs veh, ZBTB11 / RFU, TAMM41 / Fold change vs veh, TAMM41 / RFU, KIAA1704 /// LOC100996395 / Fold change vs veh, KIAA1704 /// LOC100996395 / RFU, ING1 / Fold change vs veh, ING1 / RFU, TRMT61B / Fold change vs veh, TRMT61B / RFU, FUBP3 / Fold change vs veh, FUBP3 / RFU, TP53 / Fold change vs veh, TP53 / RFU, TNKS2 / Fold change vs veh, TNKS2 / RFU, ZFP14 / Fold change vs veh, ZFP14 / RFU, ACTR2 / Fold change vs veh, ACTR2 / RFU, PPP3R1 / Fold change vs veh, PPP3R1 / RFU, PIK3R1 / Fold change vs veh, PIK3R1 / RFU, HNRNPA1 / Fold change vs veh, HNRNPA1 / RFU, RNF170 / Fold change vs veh, RNF170 / RFU, ZNF28 / Fold change vs veh, ZNF28 / RFU, RNGTT / Fold change vs veh, RNGTT / RFU, OGT / Fold change vs veh, OGT / RFU, BRD1 / Fold change vs veh, BRD1 / RFU, MARS / Fold change vs veh, MARS / RFU, ZNF655 / Fold change vs veh, ZNF655 / RFU, FAHD1 / Fold change vs veh, FAHD1 / RFU, BDP1 / Fold change vs veh, BDP1 / RFU, LRRCC1 / Fold change vs veh, LRRCC1 / RFU, ARID1A / Fold change vs veh, ARID1A / RFU, ZNF146 / Fold change vs veh, ZNF146 / RFU, ZNF330 / Fold change vs veh, ZNF330 / RFU, GPN3 / Fold change vs veh, GPN3 / RFU, C9orf123 / Fold change vs veh, C9orf123 / RFU, N4BP2L2 / Fold change vs veh, N4BP2L2 / RFU, ARFIP1 / Fold change vs veh, ARFIP1 / RFU, FAM179B / Fold change vs veh, FAM179B / RFU, BCL10 / Fold change vs veh, BCL10 / RFU, UHRF1BP1L / Fold change vs veh, UHRF1BP1L / RFU, BET1 / Fold change vs veh, BET1 / RFU, CNOT2 / Fold change vs veh, CNOT2 / RFU, ZNF268 / Fold change vs veh, ZNF268 / Fold change vs veh, ZNF507 / RFU, DGCR2 / Fold change vs veh, DGCR2 / RFU, WDSUB1 / Fold change vs veh, WDSUB1 / Fold change vs veh, HSP90B1 /// MIR3652 / RFU, ADSS / Fold change vs veh, ADSS / RFU, GK / Fold change vs veh, GK / RFU, ZNF148 / Fold change vs veh, ZNF148 / RFU, TAF9 / Fold change vs veh, TAF9 / RFU, SLC1A5 / Fold change vs veh, SLC1A5 / RFU, SLMO2 / Fold change vs veh, SLMO2 / RFU, ABCC4 / Fold change vs veh, ABCC4 / RFU, LOC101060439 /// RAP1B / Fold change vs veh, LOC101060439 /// RAP1B / RFU, RFX7 / Fold change vs veh, RFX7 / RFU, GTPBP10 / Fold change vs veh, GTPBP10 / RFU, CNEP1R1 / Fold change vs veh, CNEP1R1 / RFU, BIVM-ERCC5 /// ERCC5 / Fold change vs veh, BIVM-ERCC5 /// ERCC5 / RFU, ILF3 / Fold change vs veh, ILF3 / RFU 11762660_at / Fold change /veh 11762660_at / RFU VCAN (11757783_s_at) / Fold change /veh VCAN (11757783_s_at) / RFU DDX43 (11728927_at) / Fold change /veh DDX43 (11728927_at) / RFU KRT8 (11758188_x_at) / Fold change /veh KRT8 (11758188_x_at) / RFU NKD1 (11759106_at) / Fold change /veh NKD1 (11759106_at) / RFU SRD5A1 (11742802_a_at) / Fold change /veh SRD5A1 (11742802_a_at) / RFU TPSAB1 /// TPSB2 (11721975_s_at) / Fold change /veh TPSAB1 /// TPSB2 (11721975_s_at) / RFU GSTM3 (11746129_a_at) / Fold change /veh GSTM3 (11746129_a_at) / RFU IL23R (11737362_x_at) / Fold change /veh IL23R (11737362_x_at) / RFU TMEM51 (11727254_a_at) / Fold change /veh TMEM51 (11727254_a_at) / RFU PIWIL2 (11732686_x_at) / Fold change /veh PIWIL2 (11732686_x_at) / RFU ORM1 (11744905_x_at) / Fold change /veh ORM1 (11744905_x_at) / RFU CCDC152 (11743942_at) / Fold change /veh CCDC152 (11743942_at) / RFU ECM1 (11717891_a_at) / Fold change /veh ECM1 (11717891_a_at) / RFU IL23R (11748794_a_at) / Fold change /veh IL23R (11748794_a_at) / RFU TNFAIP8L3 (11732012_x_at) / Fold change /veh TNFAIP8L3 (11732012_x_at) / RFU MBOAT4 (11741988_at) / Fold change /veh MBOAT4 (11741988_at) / RFU 11764193_at / Fold change /veh 11764193_at / RFU TMEM53 (11763286_at) / Fold change /veh TMEM53 (11763286_at) / RFU MAGEB2 (11727129_at) / Fold change /veh MAGEB2 (11727129_at) / RFU TMEM200A (11744735_a_at) / Fold change /veh TMEM200A (11744735_a_at) / RFU CCDC152 (11751479_a_at) / Fold change /veh CCDC152 (11751479_a_at) / RFU FAM211A (11726209_a_at) / Fold change /veh FAM211A (11726209_a_at) / RFU RGS16 (11746705_a_at) / Fold change /veh RGS16 (11746705_a_at) / RFU VCAN (11755009_s_at) / Fold change /veh VCAN (11755009_s_at) / RFU RHOB (11743442_s_at) / Fold change /veh RHOB (11743442_s_at) / RFU RGS16 (11720943_a_at) / Fold change /veh RGS16 (11720943_a_at) / RFU RGS16 (11720944_at) / Fold change /veh RGS16 (11720944_at) / RFU, VPS4B / Fold change vs veh, VPS4B / RFU, CREB1 / Fold change vs veh, CREB1 / RFU, DNAJC13 / Fold change vs veh, DNAJC13 / RFU, GNAQ / Fold change vs veh, GNAQ / RFU, CDK5R1 / Fold change vs veh, CDK5R1 / RFU, ZRANB3 / Fold change vs veh, ZRANB3 / RFU, CUL4A / Fold change vs veh, CUL4A / RFU, CCNY / Fold change vs veh, CCNY / RFU, UFL1 / Fold change vs veh, UFL1 / RFU, COG3 / Fold change vs veh, COG3 / RFU, DIAPH2 / Fold change vs veh, DIAPH2 / RFU, SKA2 / Fold change vs veh, SKA2 / RFU, AFF3 / Fold change vs veh, AFF3 / RFU, LMF1 / Fold change vs veh, LMF1 / RFU, IPO11 / Fold change vs veh, IPO11 / RFU, DFFB / Fold change vs veh, DFFB / RFU, FOXP1 / Fold change vs veh, FOXP1 / RFU, CARD8 / Fold change vs veh, CARD8 / RFU, STRN3 / Fold change vs veh, STRN3 / RFU, ADK / Fold change vs veh, ADK / RFU, RASSF2 / Fold change vs veh, RASSF2 / RFU, WIPF1 / Fold change vs veh, WIPF1 / RFU, LARP1B / Fold change vs veh, LARP1B / RFU, RASA1 / Fold change vs veh, RASA1 / RFU, RB1 / Fold change vs veh, RB1 / RFU, PPFIA1 / Fold change vs veh, PPFIA1 / RFU, MAT2A / Fold change vs veh, MAT2A / RFU, CCT5 / Fold change vs veh, CCT5 / RFU, WDR92 / Fold change vs veh, WDR92 / RFU, CUX1 / Fold change vs veh, CUX1 / RFU, TTC7A / Fold change vs veh, TTC7A / RFU, TMEM135 / Fold change vs veh, TMEM135 / RFU, DEPTOR / Fold change vs veh, DEPTOR / RFU, CPM / Fold change vs veh, CPM / RFU, DNAJB6 / Fold change vs veh, DNAJB6 / RFU, CACNA2D3 / Fold change vs veh, CACNA2D3 / RFU, DTX4 / Fold change vs veh, DTX4 / RFU, TFCP2 / Fold change vs veh, TFCP2 / RFU, GMCL1 /// GMCL1P1 / Fold change vs veh, GMCL1 /// GMCL1P1 / RFU, AEBP2 / Fold change vs veh, AEBP2 / RFU, SNHG1 /// SNORD22 /// SNORD25 /// SNORD26 /// SNORD27 /// SNORD28 /// SNORD29 /// SNORD31 / Fold change vs veh, SNHG1 /// SNORD22 /// SNORD25 /// SNORD26 /// SNORD27 /// SNORD28 /// SNORD29 /// SNORD31 / Fold change (Aza/veh), C12orf56 (ProbeSet 11735607_a_at) / Fold change (ACY-1035/veh), C12orf56 (ProbeSet 11735607_a_at) / Fold change (Aza/veh), FGFR1OP (ProbeSet 11751329_s_at) / Fold change (ACY-1035/veh), FGFR1OP (ProbeSet 11751329_s_at) / Fold change (Aza/veh), VPS36 (ProbeSet 11739960_a_at) / Fold change (ACY-1035/veh), VPS36 (ProbeSet 11739960_a_at) / RFU SYPL1 (11715823_x_at) / Fold change /veh SYPL1 (11715823_x_at) / RFU IGFBP7 (11715501_s_at) / Fold change /veh IGFBP7 (11715501_s_at) / RFU REEP3 (11722064_at) / Fold change /veh REEP3 (11722064_at) / RFU IGLL1 (11728026_x_at) / Fold change /veh IGLL1 (11728026_x_at): dose or concentration left out as unconfirmed. The note with it: ProbeSet 11720566_at; LIST D. It counts as cell-based, human.

On to `Nc1ncn([C@@H]2O[C@H](CO)[C@@H](O)[C@H]2O)c(=O)n1` [azacitidine], for which the “Fold change vs veh, BCAT1” value is recorded as 0.67.

The values above are taken from paper PMC5218480 (PLoS ONE, 2017).
